Target: human VMAT2 (Homo sapiens, UniProt Q05940)
Assay: [3H]-α-DHTBZ radioligand binding in vesicles from human VMAT2-transfected HEK293 cells
Conditions: read-out: IC50 [3H]-α-DHTBZ binding

Sequence of human VMAT2 (Q05940 whole entry): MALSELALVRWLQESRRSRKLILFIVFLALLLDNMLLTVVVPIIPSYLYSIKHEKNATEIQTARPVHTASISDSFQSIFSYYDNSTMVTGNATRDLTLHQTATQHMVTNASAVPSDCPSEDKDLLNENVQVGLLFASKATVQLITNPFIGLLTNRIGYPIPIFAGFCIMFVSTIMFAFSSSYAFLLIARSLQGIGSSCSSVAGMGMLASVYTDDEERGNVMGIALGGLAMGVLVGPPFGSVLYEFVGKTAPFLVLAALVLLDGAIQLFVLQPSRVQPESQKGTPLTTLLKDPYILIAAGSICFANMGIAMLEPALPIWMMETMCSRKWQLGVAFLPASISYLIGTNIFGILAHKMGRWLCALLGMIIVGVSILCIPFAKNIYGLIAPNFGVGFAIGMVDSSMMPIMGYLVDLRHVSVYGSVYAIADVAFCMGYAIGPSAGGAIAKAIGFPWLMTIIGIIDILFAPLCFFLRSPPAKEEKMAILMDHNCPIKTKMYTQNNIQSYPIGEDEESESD

COc1cc2c(cc1OC)C1CC(=O)C(CC(C)C)CN1CC2 (stereo not shown) [TBZ, Tetrabenazine]
IC50: 19.2 nM
